Read-outs that look alike come from different tables or passages of the source.
Legend:
[1] = Microsomal stability, human liver microsomes (S9), Phase-II (UGT enzymes); format: in vitro ADME; conditions: 5 µM
Method: (§1) Mouse or human liver microsomes (S9), reduced nicotinamide adenine dinucleotide phosphate (NADPH) generating system solutions and uridine glucuronosyltransferase (UGT) reaction mix (BD Biosciences) were kept at −80 °C. The test compounds and reference compound diclofenac were formulated in DMSO at […]. The assay was carried out based on the BD Biosciences Guidelines for Use (TF000017 Rev1.0) with minor adaptations. The metabolic stability of the compounds was studied through the CYP450 superfamily (Phase-I metabolism) by fortification with NADPH and through UGT enzymes (Phase-II metabolism) by fortification with uridine diphosphate glucuronic acid (UDPGA). For CYP450 and other NADPH dependent enzymes, the compounds were incubated at 5 µM together with 0.5 mg/mL S9 in potassium phosphate buffer in a reaction started by the addition of 1 mM NADP. At defined time points, 20 µL was withdrawn from the reaction mixture and 80 µL cold acetonitrile (ACN) was added to inactivate the enzymes and precipitate the protein. The mixture was vortexed for 30 s and centrifuged at 4 °C for 5 min to collect the supernatant. For UGT enzymes, the compounds were incubated at 5 µM together with 0.5 mg/mL S9 in a reaction started by the addition of 2 mM UDPGA cofactor. The loss of parent compound was determined using liquid chromatography (UPLC) (Waters Aquity^TM) coupled with tandem quadrupole mass spectrometry (MS^2) (Waters Xevo^TM), equipped with an electrospray ionisation (ESI) interface and operated in multiple reaction monitoring (MRM) mode.

[2] = system: Schistosoma mansoni worm couples; assay: S. mansoni ovipositing capacity and coupling; conditions: for inhibition at 5 µM / inhibition at 10 µM / inhibition at 25 µM / inhibition at 50 µM / inhibition at 100 µM: Schistosoma mansoni, 120 h, read-out: Reduction in number of eggs (%)
Method: Stock solutions of 5 mM PZQ and the quinazoline derivatives 2–13 were prepared in DMSO. Concentrations of 100 µM, 50 µM, 25 µM, 10 µM and 5 µM were freshly prepared on the day of experiment in RPMI-1640 medium. All compounds were initially tested at 100 and 50 µM; those showing worm killing were further tested at 25, 10 and 5 µM. 12-well tissue culture plates were used, each well containing 6–8 worms with at least one worm couple. Worms were incubated overnight in a CO2 incubator at 37 °C. Each concentration was tested in duplicate wells. On day 4, eggs were counted and discarded and the medium was changed. On day 5 (end of observation period) newly deposited eggs were counted. The final egg number is the total count of days 4 and 5 for each concentration tested and the final recording of the percentage of egg reduction was determined as [the total number of eggs on days 4 and 5 of control – the total number of eggs on days 4 and 5 of treated]/the total number of eggs on days 4 and 5 of control × 100.

[3] = Microsomal stability, mouse liver microsomes (S9), Phase-II (UGT enzymes); format: in vitro ADME; conditions: 5 µM
Method: as §1

[4] = Microsomal stability, human liver microsomes (S9), Phase-I (CYP450-NADPH); format: in vitro ADME; conditions: 5 µM
Method: as §1

[5] = system: Schistosoma mansoni mature worms; assay: In vitro S. mansoni worm killing; set-up: key to Worm killing (male worms) / Worm killing (female worms): % worm mortality = dead worms / total worms × 100; conditions: for killing at 5 µM / killing at 10 µM / killing at 25 µM / killing at 50 µM / killing at 100 µM / EC50: Schistosoma mansoni; for killing at 5 µM / killing at 10 µM / killing at 25 µM / killing at 50 µM / killing at 100 µM: 120 h, read-out: Worm killing (% of total); for Worm killing (female worms) / Worm killing (male worms): day 5
Method: The percentage reduction of worm or egg burden in each treated group was calculated. […] Results are expressed as mean ± SEM. A two-tailed, unpaired Student’s t-test was used to detect the significance of difference between the means of different groups. […] Stock solutions of 5 mM PZQ and the quinazoline derivatives 2–13 were prepared in DMSO. Concentrations of 100 µM, 50 µM, 25 µM, 10 µM and 5 µM were freshly prepared on the day of experiment in RPMI-1640 medium. All compounds were initially tested at 100 and 50 µM; those showing worm killing were further tested at 25, 10 and 5 µM. Worms were obtained from SBSC of TBRI. Six to eight worms were placed in 12-well tissue culture plates and fresh RPMI-1640 medium (supplemented with glutamine, 20% newborn calf serum and streptomycin, penicillin, and gentamicin), containing the indicated concentration of the test compound was added[20]^,[21]. Worms were incubated overnight in a CO2 incubator at 37 °C. On the 2nd day, worms were examined by microscopy, washed three times with normal saline, fresh medium was added and the incubation was continued. On the 3rd day, worm motility was observed and on the 4th day, medium was changed again. On day 5 (end of the observation period), worms were microscopically examined for their motility and appearance. Each concentration was tested in duplicate, and the final recording of percent worm mortality was determined as the number of dead worms [contracted and opaque] divided by the total number of worms × 100. Negative controls used medium without additions or medium with 2% DMSO; positive control media containing identical concentrations of PZQ were tested in parallel.

[6] = Microsomal stability, mouse liver microsomes (S9), Phase-I (CYP450-NADPH); format: in vitro ADME; conditions: 5 µM
Method: as §1

[7] = 10 µM, dose-titration (Table 3)
[8] = 25 µM, dose-titration (Table 3)
[9] = 50 µM, dose-titration (Table 3)
[10] = 100 µM, dose-titration (Table 3)
[11] = 5 µM, day 5, mature (6 weeks old) worms, dose-titration (Table 3)
[12] = 10 µM, day 5, mature (6 weeks old) worms, dose-titration (Table 3)
[13] = 25 µM, day 5, mature (6 weeks old) worms, dose-titration (Table 3)
[14] = 50 µM, day 5, initial test (Table 2)
[15] = 50 µM, day 5, mature (6 weeks old) worms, dose-titration (Table 3)
[16] = 100 µM, day 5, initial test (Table 2)
[17] = 100 µM, day 5, mature (6 weeks old) worms, dose-titration (Table 3)
[18] = males and females together, read-out: EC50 (worm killing)
[19] = read-out: EC50 (worm killing, female worms)
[20] = read-out: EC50 (worm killing, male worms)

SMILES: COc1ccc(Cn2c(=O)c3cc(Cl)ccc3n(Cc3ccc(C(F)(F)F)cc3)c2=O)cc1 [compound 9, 6-Chloro-1-(4-(trifluoromethyl)benzyl)-3-(4-methoxybenzyl)quinazolin-2,4(1H,3H)-dione]
- % Parent compound remaining upon incubation ([1]; 0 h): 100%
- % Parent compound remaining upon incubation ([1]; 0.25 h): 94%
- % Parent compound remaining upon incubation ([1]; 0.5 h): 95%
- % Parent compound remaining upon incubation ([1]; 1 h): 97%
- Uncoupling ([2]; 5 µM, dose-titration (Table 3)): No
- Uncoupling [2, 7]: No
- Uncoupling [2, 8]: Yes
- Reduction in number of eggs (%) [2, 9]: 100%
- Uncoupling [2, 9]: Yes
- Uncoupling ([2]; 50 µM, initial test (Table 2)): Yes
- Reduction in number of eggs (%) [2, 10]: 100%
- Uncoupling [2, 10]: Yes
- Uncoupling ([2]; 100 µM, initial test (Table 2)): Yes
- inhibition at 5 µM ([2]; 5 µM, dose-titration (Table 3)): 67%
- inhibition at 10 µM [2, 7]: 73%
- inhibition at 25 µM [2, 8]: 100%
- inhibition at 50 µM ([2]; 50 µM, initial test (Table 2)): 100%
- inhibition at 100 µM ([2]; 100 µM, initial test (Table 2)): 100%
- % Parent compound remaining upon incubation ([3]; 0 h): 100%
- % Parent compound remaining upon incubation ([3]; 0.25 h): 101%
- % Parent compound remaining upon incubation ([3]; 0.5 h): 103%
- % Parent compound remaining upon incubation ([3]; 1 h): 105%
- % Parent compound remaining upon incubation ([4]; 0 h): 100%
- % Parent compound remaining upon incubation ([4]; 0.25 h): 104%
- % Parent compound remaining upon incubation ([4]; 0.5 h): 61%
- % Parent compound remaining upon incubation ([4]; 1 h): 67%
- killing at 5 µM [5, 11]: 0%
- killing at 10 µM [5, 12]: 0%
- killing at 25 µM [5, 13]: 0%
- killing at 50 µM [5, 14]: 29%
- killing at 50 µM [5, 15]: 88%
- killing at 100 µM [5, 16]: 100%
- killing at 100 µM [5, 17]: 100%
- EC50 [5, 18]: 47 µM
- EC50 [5, 19]: 49 µM
- EC50 [5, 20]: 41 µM
- Worm killing (female worms) ([5]; 5 µM): 0
- Worm killing (female worms) ([5]; 10 µM): 0
- Worm killing (female worms) ([5]; 25 µM): 0
- Worm killing (female worms) ([5]; 50 µM): 75
- Worm killing (female worms) ([5]; 100 µM): 100
- Worm killing (male worms) ([5]; 5 µM): 0
- Worm killing (male worms) ([5]; 10 µM): 0
- Worm killing (male worms) ([5]; 25 µM): 0
- Worm killing (male worms) ([5]; 50 µM): 100
- Worm killing (male worms) ([5]; 100 µM): 100
- % Parent compound remaining upon incubation ([6]; 0 h): 100%
- % Parent compound remaining upon incubation ([6]; 0.25 h): 91%
- % Parent compound remaining upon incubation ([6]; 0.5 h): 51%
- % Parent compound remaining upon incubation ([6]; 1 h): 44%

SMILES: COc1cc2c(=O)n(Cc3ccc(F)cc3)c(=O)n(Cc3ccc(C(F)(F)F)cc3)c2cc1OC [compound 10, 3-(4-Fluorobenzyl)-1-(4-(trifluoromethyl)benzyl)-6,7-dimethoxyquinazolin-2,4(1H,3H)-dione]
- % Parent compound remaining upon incubation ([1]; 0 h): 100%
- % Parent compound remaining upon incubation ([1]; 0.25 h): 102%
- % Parent compound remaining upon incubation ([1]; 0.5 h): 106%
- % Parent compound remaining upon incubation ([1]; 1 h): 98%
- Uncoupling ([2]; 5 µM, dose-titration (Table 3)): No
- Uncoupling [2, 7]: No
- Uncoupling [2, 8]: Yes
- Uncoupling [2, 9]: Yes
- Uncoupling ([2]; 50 µM, initial test (Table 2)): Yes
- Uncoupling [2, 10]: Yes
- Uncoupling ([2]; 100 µM, initial test (Table 2)): Yes
- inhibition at 5 µM ([2]; 5 µM, dose-titration (Table 3)): 77%
- inhibition at 10 µM [2, 7]: 80%
- inhibition at 25 µM [2, 8]: 100%
- inhibition at 50 µM ([2]; 50 µM, initial test (Table 2)): 100%
- inhibition at 100 µM ([2]; 100 µM, initial test (Table 2)): 100%
- % Parent compound remaining upon incubation ([3]; 0 h): 100%
- % Parent compound remaining upon incubation ([3]; 0.25 h): 89%
- % Parent compound remaining upon incubation ([3]; 0.5 h): 83%
- % Parent compound remaining upon incubation ([3]; 1 h): 91%
- % Parent compound remaining upon incubation ([4]; 0 h): 100%
- % Parent compound remaining upon incubation ([4]; 0.25 h): 108%
- % Parent compound remaining upon incubation ([4]; 0.5 h): 83%
- % Parent compound remaining upon incubation ([4]; 1 h): 65%
- killing at 5 µM [5, 11]: 0%
- killing at 10 µM [5, 12]: 8%
- killing at 25 µM [5, 13]: 50%
- killing at 50 µM [5, 14]: 93%
- killing at 50 µM [5, 15]: 100%
- killing at 100 µM [5, 16]: 100%
- killing at 100 µM [5, 17]: 100%
- EC50 [5, 18]: 25 µM
- EC50 [5, 19]: 26 µM
- EC50 [5, 20]: 20 µM
- Worm killing (female worms) ([5]; 5 µM): 0
- Worm killing (female worms) ([5]; 10 µM): 0
- Worm killing (female worms) ([5]; 25 µM): 33
- Worm killing (female worms) ([5]; 50 µM): 100
- Worm killing (female worms) ([5]; 100 µM): 100
- Worm killing (male worms) ([5]; 5 µM): 0
- Worm killing (male worms) ([5]; 10 µM): 14
- Worm killing (male worms) ([5]; 25 µM): 63
- Worm killing (male worms) ([5]; 50 µM): 100
- Worm killing (male worms) ([5]; 100 µM): 100
- % Parent compound remaining upon incubation ([6]; 0 h): 100%
- % Parent compound remaining upon incubation ([6]; 0.25 h): 85%
- % Parent compound remaining upon incubation ([6]; 0.5 h): 39%
- % Parent compound remaining upon incubation ([6]; 1 h): 32%

— publication PMC7717570, “Deciphering the enzymatic target of a new family of antischistosomal agents bearing a quinazoline scaffold using complementary computational tools” (Journal of Enzyme Inhibition and Medicinal Chemistry, 2020)
